Experimental data reported in patent publication US20050031598A1, “Engineering three-dimensional tissue structures using differentiating embryonic stem cells” (priority 2002, published 2005).

Legend:
Type in all cases: cell-based, human
[1] = tested on: differentiating hES cells (EB day 8); assay: Lumen diameters of tubulocystic structures lined by cytokeratin-positive epithelium in hES cell-scaffold constructs; conditions: scaffold constructs grown two weeks, IGF-I 10 ng/mL, mean ±SD; for percentage of lumens >40 μm of total number of lumens (tubulocystic structures): RA 300 ng/ml, control 65%±4
Experimental: (§1) For seeding in matrigel, 8-9 days-old EBs were trypsinized, and 0.8×10^6 cells were mixed in 25 μL of a 50% (vol/vol) media and matrigel (growth factor-reduced, BD Biosciences, Bedford, Mass.). EB media was supplemented with the following growth factors: TGF-β1 (2 ng/mL), activin-A (20 ng/mL), and IGF-I (10 ng/mL), (R&D Systems, Minneapolis, Minn.), and RA (300 ng/ml) (Sigma). The mixture was solidified in a 6-well Petri dish at 37° C. and then detached from the dish with sterile blades. 4 mL of each respective EB media was added. For seeding on scaffolds, 0.8×10^6 cells were seeded into each scaffold using 25 μL of a mixture containing 50% (vol/vol) of Growth Factor-Reduced Matrigel and the respective EB media. After seeding the cells, scaffolds were suspended in 6-well petri dishes in their respective media. For some experiments, scaffolds were soaked in 50 μg/mL of fibronectin (Sigma) for 1 hour and washed in PBS prior to direct cell seeding (without matrigel) in 25 μL of EB media.
(§2) Tissue constructs were fixed for 6 hours in 10% neutral buffered formalin, routinely processed, and embedded in paraffin. 5-μm thick transverse sections were placed on silanized slides for immunohistochemistry or staining with hematoxylin and eosin (H & E), trichrome, or Safranin O. Immunohistochemical staining was carried out using the Biocare Medical Universal HRP-DAB kit (Biocare Medical, Walnut Creek, Calif.) according to the manufacturer's instructions, with prior heat-treatment at 90° C. for 20 minutes in ReVeal buffer (Biocare Medical) for epitope recovery. […]
Constructs grown for two weeks in control medium or in the presence of IGF or RA were processed and stained with anti-cytokeratin antibody as described above. Tubulocystic structures were counted and lumen diameters measured and grouped (large>200 μm, medium (Med)>40 μm, small<[…], closed and multilayered lumens). The results, the mean values (±SD) of samples obtained in two different experiments performed in duplicate, were recorded as percentages of lumens in each group from total number of lumens in each sample.

[2] = tested on: differentiating hES cells (EBs day 8); assay: Differentiation of hES cells in matrigel alone; conditions: for shape of cell-matrigel structure: two weeks in suspension
Experimental: as §1
(§3) Tissue constructs were fixed for 6 hours in 10% neutral buffered formalin, routinely processed, and embedded in paraffin. 5-μm thick transverse sections were placed on silanized slides for immunohistochemistry or staining with hematoxylin and eosin (H & E), trichrome, or Safranin O. Immunohistochemical staining was carried out using the Biocare Medical Universal HRP-DAB kit (Biocare Medical, Walnut Creek, Calif.) according to the manufacturer's instructions, with prior heat-treatment at 90° C. for 20 minutes in ReVeal buffer (Biocare Medical) for epitope recovery. The primary antibodies were mouse anti-human: desmin (1:150), alpha feto protein (1:2500), cytokeratin 7 (1:25), CD31 (1:20), albumin (1:100), vimentin (1:50), S100 (1:100) (all from Dako), anti-human βIII-tubulin (Sigma, 1:500), nestin (Transduction Laboratories, San Diego, Calif., 1:1000), CD34 (Labvision, Fremont, Calif., 1:20), SSEA4 (Hybridoma Bank, University of Iowa, Ames, 1:4), and Tra 1-60 (a gift from Peter Andrews, University of Sheffield, Sheffield, U.K., 1:10). Human and mouse tissues (Daks) were used as controls to ensure antibody specificity (FIG. 1). For proliferation studies, culture medium was incubated with […] of 5′-bromo-2′-deoxyuridine (BrdUrd) (Sigma) for 3 hours before fixation. Tissue sections were stained using mouse anti-BrdUrd antibodies (1:1000).

[3] = tested on: differentiating hES cells (EB day 8); assay: Histochemical and immunohistochemical staining of hES cell constructs on PLLA/PLGA scaffolds; conditions: scaffold constructs, two weeks; for alpha feto protein (AFP) and albumin staining: in comparison to the control
Experimental: as §1, §3

hEBs (day 8) = assay: Staining of hEBs incubated with growth factors; conditions: EBs conditioned with growth factor
Experimental: FIG. 4 includes light micrographs of 5-μm-thick sections taken from hEBs (day 8), incubated for additional 2 weeks with control medium (CON) or medium supplemented with retinoic acid (RA), or insulin-like growth factor (IGF), and stained with antibodies against human cytokeratin, α-feto-protein, and nestin (scale bars=200 μm.)
hES cells (H9 clone) were grown on mouse embryonic fibroblasts (Cell Essential, Boston, Mass.) in KnockOut Medium (Gibco-BRL, Gaithersburg, Md.), a modified version of Dulbeco's modified Eagle's medium optimized for ES cells, as described^5. To induce formation of EBs, hES cell colonies were dissociated with 1 mg/ml collagenase type IV and suspended in differentiation media without LIF and bFGF in Petri dishes^5.
as §2

[4] = tested on: differentiating hES cells (EB day 8); assay: RT-PCR gene expression analysis of hES cell constructs on PLLA/PLGA scaffolds; conditions: scaffold constructs, two weeks
Experimental: as §1
Total RNA was isolated by an RNEasy Mini Kit (Qiagen, Chatsworth, Calif.). […] For some gels including RNA amplified using a GADPH primer, semi-quantitative analysis was performed by measuring the mean pixel intensities of each band and normalizing the measured intensity to the mean pixel intensity of the GADPH band.

Row | Compound | percentage of lumens >40 μm of total number of lumens (tubulocystic structures) [1] | percentage of lumens >200 μm of total number of lumens (tubulocystic structures) [1] | AFP expression/staining ([2]; two weeks) | epithelial-lined tubular or cystic structures (histology) ([2]; two weeks) | shape of cell-matrigel structure [2] | Safranin-O staining for glycosaminoglycans (cartilage extracellular matrix) [3] | alpha feto protein (AFP) and albumin staining [3] | Safranin-O staining of cartilage-derived GAG ([2]; two weeks) | safranin-O staining (hEBs (day 8)) | cartilage matrix protein (CMP) expression ([4]; compared to the other samples) | collagen formation (trichrome staining) [3] | increase in total percentage of cytokeratin-positive areas within the tissue ([3]; versus control medium, P<0.01) | cellular viability ([2]; two weeks) | expression of pancreatic gene PDX-1 ([4]; versus other growth factors)
1 | IGF: insulin growth factor IGF-I, 10 ng/mL (R&D Systems) | 84%±6 | 10%±3 | some AFP staining could be observed | occasional epithelial-lined tubular or cystic structures | larger and less condensed | did not induce formation of Safranin O-positive matrix | high levels of AFP and albumin in more defined areas |  |  |  |  |  |  | 
2 | TGF-β: transforming growth factor beta, TGF-β1, 2 ng/mL (R&D Systems) |  |  |  | did not contain any such structures |  | high levels of Safranin-O staining |  | No Safanin-O staining | no safranin-O staining was observed | higher levels | induced mature collagen formation |  |  | 
3 | CC1=C(/C=C/C(C)=C/C=C/C(C)=C/C(=O)O)C(C)(C)CCC1 [RA, retinoic acid, reference compound] | 25%±12 |  |  |  |  |  |  |  |  |  |  | ~4 fold |  | 
4 | activin-A |  |  | No AFP expression was observed | did not contain any such structures | small, condensed spheres | did not induce formation of Safranin O-positive matrix | high levels of alpha feto protein (AFP) and albumin throughout the sample |  |  |  |  |  | least cellular viability | higher levels
